Source: paper PMC9954107, “In Vitro and Predictive Computational Toxicology Methods for the Neurotoxic Pesticide Amitraz and Its Metabolites” (Brain Sciences, 2023)

How the values were obtained:
HepG2 cells [1] = assay: Total protein content (PC) cytotoxicity assay; format: cell-based, human; settings: for IC50: Homo sapiens, read-out: IC50 (µM) ± SEM; for decrease in cell viability: 72 h
Text: (§1) The medium was changed every 5 days. The final pesticide concentrations tested were achieved by adding each pesticide solution to the culture medium with a final MeOH or DMSO concentration ≤ 1% (v/v). Appropriate controls containing the same amounts of solvents were included in each experiment. Absence of mycoplasma was checked routinely using the MycoAlert^TM PLUS Mycoplasma Kit (Lonza, Rockland, ME, USA).
The PC method is based on the increase of absorbance of Coomassie Brilliant Blue dye when binding to proteins. The assay was performed in the same 96-well plates where the MTT test was carried out. First, the plates were washed with PBS and each well received 200 μL of NaOH 0.1 N to dissolve the proteins. […] The plates remained for 30 min at room temperature and the absorbance was measured at 620 nm in an automatic ELISA plate reader (MultiSkanEX, Thermo Scientific, MA, USA).
(§2) For MTT and PC assays, cell viability was expressed as a percentage relative to the control solvent (≤1% MeOH or DMSO). Three independent experiments were conducted for each exposure time and at least in quadruplicate per concentration. The mean inhibition concentration (IC50) values were calculated using SigmaPlot version 11 (Systat Software Inc., GmbH, Germany).

[2] = tested on: primary hippocampal cells; settings: MTT, 24 h, cited from earlier work
[3] = tested on: human lymphoblastoid (WIL2NS) cell line; design: method as in PMID 16125362; settings: from 0.119 to 119 µM, 24, 48, and 72 h; lowest concentration 0.119 µM; cited from earlier work
HepG2 cells [4] = assay: MTT cytotoxicity assay; format: cell-based; settings: Homo sapiens, read-out: IC50 (µM) ± SEM
Procedure: as §1, with “Human hepatocarcinoma (HepG2) (ATCC: HB-8065) cells were cultured in DMEM medium supplemented with 10% NBCS, 100 U/mL penicillin, and […] streptomycin. The incubation conditions were pH 7.4, 5% CO2 at 37 °C, and 95% air atmosphere at constant humidity. The medium” for “The medium”
Cytotoxic effects were determined in HepG2 cells by the MTT and total protein content (PC) assays. They have been extensively used in in vitro toxicological studies for measuring cell proliferation and survival. The MTT assay determines the viability of cells by the reduction of yellow soluble tetrazolium salt (MTT), only in the metabolically active cells, via a mitochondrial-dependent reaction to an insoluble purple formazan crystal. The MTT viability assay was performed according to Ruiz et al. (2006). To begin, 2 × 10^4 cell/well were plated in 96-well tissue culture plates. After cells reached 80% confluence, the culture medium was replaced with fresh medium containing serial dilutions of each pesticide (amitraz from […], 2,4-DMF from 93.75 to 1500 µM, and 2,4-DMA from 93.75 to 1500 µM). The pesticides were exposed at 24, 48, and 72 h. During the exposure time, neither the medium nor the pesticides was replenished. After the exposure time, the medium was removed and 200 μL of fresh medium was added to each well. Then we added 50 μL/well of MTT and the plates were returned to the incubator in the darkness. After 3 h of incubation, the MTT solution was removed and 200 μL of DMSO was added, followed by 25 μL Sorensen’s glycine buffer. Plates were gently shaken for 5 min to achieve the complete dissolution. The absorbance was measured at 540 nm using an automatic ELISA plate reader (MultiSkanEX, Thermo Scientific, Waltham, MA, USA).
as §2

[5] = PC, HepG2, 24 h, mean ± SEM (n = 3)
[6] = PC, HepG2, 48 h, mean ± SEM (n = 3)
[7] = PC, HepG2, 72 h, mean ± SEM (n = 3)

SMILES	IC50 (HepG2 cells [1]; [5]) [µM]	IC50 (HepG2 cells [1]; [6]) [µM]	IC50 (HepG2 cells [1]; [7]) [µM]	reduction of cell viability (HepG2 cells [1]; PC, HepG2, from 187.5 μM, three times of exposure)	metabolic activity ([2]; 100 µM)	cytotoxic effect (cell viability) ([2]; from 60 to 120 µM, effect up to 100 µM)	cytotoxicity (cell viability) [3]	IC50 (HepG2 cells [4]; HepG2, 24 h) [µM]	IC50 (HepG2 cells [4]; HepG2, 48 h) [µM]	IC50 (HepG2 cells [4]; HepG2, 72 h) [µM]	cell viability decreased to (HepG2 cells [1]; PC, HepG2, 1500 µM, 24 h) [%]	IC50 (HepG2 cells [1]; HepG2, 24 h) [µM]	IC50 (HepG2 cells [1]; HepG2, 48 h) [µM]	IC50 (HepG2 cells [1]; HepG2, 72 h) [µM]	decrease in cell viability (HepG2 cells [1]; PC, HepG2, 1250 µM) [%]	decrease in cell viability (HepG2 cells [1]; PC, HepG2, 1500 µM) [%]
Cc1ccc(/N=C/N(C)/C=N/c2ccc(C)cc2C)c(C)c1 [Amitraz, N,N’-[(methylimino)dimethylidyne]di-2,4-xylidine]	260 ± 13.3	213 ± 37.5	175 ± 2.9	24–100%	decrease in metabolic activity	decreased the cell viability in a concentration-dependent manner	significant decrease in cell viability for all concentrations tested, except for the lowest concentration assayed	196 ± 10.1	176 ± 5	157 ± 10.1						
Cc1ccc(N)c(C)c1 [2,4-DMA, 2,4-dimethylaniline]	> 1500	> 1500	> 1500					> 1500	> 1500	> 1500	53					
Cc1ccc(NC=O)c(C)c1 [2,4-DMF, N-(2,4-dimethylphenyl) formamide]								> 1500	> 1500	> 1500		> 1500	> 1500	> 1500	27	32
